Calls of active or inactive are those of the source. The rule behind the calls is not given here.

As usually defined, the IC50 is the concentration needed to halve the response being measured.

The subject of this experiment is Leishmania donovani growth inhibition. Briefly: antileishmanial activity against L. donovani parasites (AID 1159560).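 Note: parasites exposed to compound for 72 h before the viability read.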
Turning to `CN(CC1CCCO1)S(=O)(=O)c1ccc(C(=O)Nc2nc(-c3ccccn3)cs2)cc1` (configuration not stated), the half-inhibitory concentration (IC50) is 1.3 µM.
In the case of `COc1cc(OC)cc(C(=O)N[C@@H](CC(C)C)C(=O)NC2(C#N)CC2)c1`, the IC50 is > 50 µM (inactive).
With `CS(=O)(=O)c1cccc(CNC(=O)c2cncc(N3CCN(c4ccc(F)cc4)CC3)c2)c1` the figure was > 50 µM (inactive); with `CC1=C(C(=O)Nc2ccc(Cl)cc2)C(c2ccncc2)n2ncc(C(=O)Nc3ccccc3)c2N1` (configuration not stated), 0.13 µM; with `Cc1cc(NC(=O)CC2CCCCC2)n(-c2nc3c(c(=O)[nH]2)CCC3)n1`, 0.032 µM.
As to `CN(C)Cc1ccc(-c2ccc(S(=O)(=O)NCC3CCCO3)c(F)c2)cc1` (configuration not stated), the IC50 was > 63 µM (inactive).
With `Cc1cc(N2CCc3ccccc3C2)nc(Nc2ccc(S(=O)(=O)N3CCOCC3)cc2)n1` the figure was 3.2 µM; with `CC(C)N(C(=O)CN1C(=O)C(N)C(=O)N(c2ccccc2)c2ccccc21)c1ccccc1` (configuration not stated), > 50 µM (inactive).
With `O=C(Cn1cnc2cc([N+](=O)[O-])ccc2c1=O)NCCc1ccc(Cl)cc1Cl` the figure was > 50 µM (inactive); with `O=C(Nc1nc(-c2ccccn2)cs1)c1ccc(S(=O)(=O)N2CCCCC2)cc1`, 0.63 µM; with `NC(=O)c1ccc(-c2cccc(OCCN3CCN(C4CCCCC4)CC3)c2)cc1`, > 50 µM (inactive).
With `Cc1nc2c(-c3n[nH]c(-c4ccccc4N)n3)cccn2c1C` the figure was 6.3 µM; with `O=c1cc(NCCCNCc2c[nH]c3ccc(Br)cc23)[nH]c2ccccc12`, > 50 µM (inactive).
`CNc1c(C(N)=O)c(-c2ccc3scnc3c2)nn1CC(F)(F)F`: the IC50 was > 50 µM (inactive).
With `COc1ccc(C2CC(c3ccccc3Cl)=NN2C(=O)CNC(=O)C2CCC2)cc1` (configuration not stated), the IC50 was > 50 µM (inactive).
With `Cc1ccc(C)c(CN2C(=O)NC3(CCc4ccccc43)C2=O)c1` (configuration not stated) the figure was > 50 µM (inactive); with `CCN(CC)c1nc(N(C)C)nc2c1CN(Cc1ccccc1)CC2`, 7.9 µM; with `CC(C)S(=O)(=O)c1ccc(-c2cnc(N)c3cc(-c4ccnc(N)n4)ccc23)cc1`, 2 µM.
With `Cc1nn(-c2nc(N)nc(-c3ccccn3)n2)c(C)c1Cc1ccccc1` the figure was 5 µM.
On to `CCCc1cc(N)nc(-c2cc(CCC)cc(N)n2)c1`, for which the IC50 was 20 µM.
The result for `CNc1cc(Cn2c(C(=O)c3cc(C)cc(Cl)c3)c(C(C)C)c(=O)[nH]c2=O)ccn1` reads > 50 µM (inactive); that for `NC(=O)c1ccccc1Nc1nc(NC2CCCCC2)nc2[nH]ccc12`, 20 µM.
With `Cc1ccc(CNC2CCN(C[C@@H]3Cn4c(=O)ccc5ccc(=O)n3c54)CC2)cc1F` the figure was > 50 µM (inactive).
The result for `O=C(Nc1ccccc1)Nc1nc(-c2ccccn2)cs1` reads 1.6 µM; that for `CCOc1cnn(C)c(=O)c1Nc1ccc(C(=O)NCc2ccc(F)cc2)cc1`, 32 µM.
As for `OCC1CCCCN1c1cc(-c2ccccn2)nc(Nc2ccccc2)n1` (configuration not stated), the IC50 was 3.2 µM.
On to `O=C(CN(Cc1ccccn1)Cc1ccccn1)NCc1ccc2c(c1)OCO2`, for which the 50% inhibitory concentration (IC50) is 13 µM.
Turning to `COc1ccc(Nc2nccc(N(C)c3n[nH]c4c(F)cccc34)n2)cc1S(C)(=O)=O`, the half-inhibitory concentration (IC50) is 25 µM.
`COc1ccc(CN2C(=O)C(O)(CC(=O)c3ccncc3)c3cc(Br)ccc32)cc1OC` (configuration not stated): the concentration for half-maximal inhibition (IC50) was 40 µM.
The result for `Cc1c(C(=O)NCCCCn2ccnc2)oc2c(C)cccc12` reads > 50 µM (inactive); that for `CCN(Cc1cccs1)C(=O)CSc1nnc(-c2ccc3c(c2)OCO3)o1`, 3.2 µM.
For `Cc1nc2nc(C)c(Cc3ccc(C(C)C)cc3)c(=O)n2[nH]1`, the IC50 was 1.3 µM.
Consider `Cc1c(CNC(=O)c2ccc(Cn3cc(Cl)c([N+](=O)[O-])n3)cc2)cnn1C`, for which the IC50 is > 50 µM (inactive).
For the compound `COc1ncc(-c2ccc3ncnc(N4CCOCC4)c3c2)cc1NS(C)(=O)=O`, the IC50 is 3.2 µM.
With `O=C(NC(CO)c1ccc(F)cc1)c1ccc(-c2c[nH]c3ncccc23)s1` (configuration not stated) the figure was 32 µM.
With `CCC(=O)Nc1ccc(C(=O)Nc2ccccc2-c2ccccc2)cc1`, the IC50 is 10 µM.
The result for `CC(C)C[C@H](NC(=O)c1csc(-c2cccs2)n1)C(=O)NC1(C#N)CC1` reads 5 µM; that for `Cc1cc(=O)n2nc(Oc3ccc(C#N)cc3Cl)sc2n1`, 13 µM.
Consider `Cc1cc(-c2cccc3ccccc23)nc2nc(N)nc(N)c12`, for which the IC50 was 2 µM.
With `Cc1cccnc1NC(=O)c1cccc(OCc2c(C)noc2C)c1` the figure was > 50 µM (inactive); with `N#Cc1nc(C=Cc2ccccc2)oc1NCc1cccnc1`, 25 µM; with `Cn1nccc1NC(=O)Cn1ccc(-c2ccncc2)n1`, > 50 µM (inactive).
With `COc1ccc(C(=O)NC2CCN(CCn3c(=O)ccc4ncc(F)cc43)CC2)cc1Cl` the figure was 4 µM.
`CCN(CC)c1ncc(C(=O)c2ccc([N+](=O)[O-])o2)s1`: the IC50 was 5 µM.
The result for `COc1ccc(OC)c(NC(=O)c2ccc([N+](=O)[O-])o2)c1` reads 25 µM; that for `CCc1cc(C(=O)Nc2nccn2-c2ccccc2)cs1`, 6.3 µM.
`NC(=O)c1cc(F)ccc1Nc1nc(NC2CCC(O)CC2)ncc1Cl` (configuration not stated): the half-maximal inhibitory concentration (IC50) was 3.2 µM.
In the case of `O=C1CCCCCC1(Cc1cnc[nH]1)c1ccc(Cl)cc1Cl` (configuration not stated), the IC50 is > 50 µM (inactive).
The result for `CC(C)(C)C(O)(CCc1ccc(Cl)cc1)Cn1cncn1` (configuration not stated) reads 3.2 µM; that for `C=CCN(Cc1cccs1)C(=O)CSc1nnc(-c2ccc3c(c2)OCO3)o1`, 6.3 µM.
As to `CNC(=O)C1Cc2ccccc2N1C(=O)Cc1ccc(OC)cc1` (configuration not stated), the IC50 was > 50 µM (inactive).
Consider `O=C1CSC(c2cccnc2)N1c1ccc(Cl)cc1Cl` (configuration not stated), for which the half-maximal inhibitory concentration (IC50) was 5 µM.
On to `c1ccc(-c2nc(NC3CCCCC3)cc(C3CC3)n2)nc1`, for which the half-maximal inhibitory concentration (IC50) is 0.79 µM.
The result for `COc1cccc(-c2c(C)nn(-c3nc(N)nc(-c4ccccn4)n3)c2N)c1` reads 5 µM; that for `CCOc1cc(NCCCN2CCN(C)CC2)c2ncccc2c1`, 40 µM.
With `Cc1nc(N2CCC(C(=O)N3CCC(O)(c4cccnc4)CC3)CC2)nc2ccc(C(C)C)cc12` the figure was > 50 µM (inactive).
Take `c1ccc(Nc2nc3ccccc3[nH]2)nc1`: the 50% inhibitory concentration (IC50) is 25 µM.
With `COc1ccc(Cc2nc(-c3ncc4cccnc4c3O)n[nH]2)cc1OC` the figure was 0.32 µM.
As to `O=C(Nc1ccc(C(F)(F)F)cc1)NC1(C(=O)NCc2ccco2)CCCCC1`, the 50% inhibitory concentration (IC50) was 40 µM.
The result for `COc1cccc(CCNC(=O)C(c2cn[nH]c2)N2CCN(c3ccc(Cl)cc3)CC2)c1` (configuration not stated) reads 13 µM; that for `Clc1cc(Br)ccc1OCCCCn1ccnc1`, 0.13 µM; that for `O=C1c2cnc(N3CCCC3)nc2CN1c1ccc2c(c1)OCO2`, 6.3 µM.
As to `O=C(CN(c1cccc(C(F)(F)F)c1)S(=O)(=O)c1ccc(Cl)cc1)NCc1ccc(F)c(F)c1`, the IC50 was > 50 µM (inactive).
Regarding `COc1ccccc1CNc1cc(C2CC2)nc(-c2nccn2C)n1`, the half-maximal inhibitory concentration (IC50) is 1 µM.
The result for `O=C(NCCc1nc(-c2ccc(F)c(F)c2)n[nH]1)C1CCCCC1` reads > 50 µM (inactive); that for `CN(Cc1ccc(F)cc1)c1ccc(OCC(=O)N2CCCCC2c2cccnc2)nn1` (configuration not stated), 16 µM.
The result for `COc1ccc(-c2csc(NC(=O)c3ccc([N+](=O)[O-])s3)n2)cc1OC` reads 1 µM.

The values are drawn from PubChem BioAssay AID1159560 (GlaxoSmithKline (GSK), 2015).
